Source: US10968212B2 (ACCUTAR BIOTECHNOLOGY INC., priority 2016, dated 2021)

Experiments:
Estrogen Receptor alpha = molecular target: T1, Estrogen Receptor alpha (Homo sapiens, UniProt P03372); assay: Estrogen Receptor alpha degradation in MCF-7 cells (immunoblot, 20 hours); type: cell-based; conditions: concentrations from 1 nM to 1 μM, FIGS. 3A and 3B
T1 construct: endogenous in cells; host or cells: MCF7 or LTED cells
T1 sequence (P03372 1-595): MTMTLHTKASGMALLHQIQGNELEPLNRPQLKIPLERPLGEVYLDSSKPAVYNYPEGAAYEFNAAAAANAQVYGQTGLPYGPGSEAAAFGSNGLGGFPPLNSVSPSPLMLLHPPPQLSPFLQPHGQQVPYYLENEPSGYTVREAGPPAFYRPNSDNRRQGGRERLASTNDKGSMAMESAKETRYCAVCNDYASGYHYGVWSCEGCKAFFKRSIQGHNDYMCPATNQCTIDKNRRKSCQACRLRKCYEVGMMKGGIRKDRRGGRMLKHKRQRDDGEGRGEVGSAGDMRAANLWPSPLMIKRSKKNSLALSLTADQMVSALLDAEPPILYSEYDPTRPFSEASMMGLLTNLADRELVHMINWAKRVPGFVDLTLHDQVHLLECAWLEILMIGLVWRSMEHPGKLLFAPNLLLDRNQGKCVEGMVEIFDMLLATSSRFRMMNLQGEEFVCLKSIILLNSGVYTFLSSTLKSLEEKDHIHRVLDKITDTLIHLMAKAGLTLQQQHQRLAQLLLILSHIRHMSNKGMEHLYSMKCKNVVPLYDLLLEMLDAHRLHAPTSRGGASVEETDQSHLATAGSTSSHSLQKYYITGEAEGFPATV
Method: MCF-7 cells were maintained in high glucose DMEM (Corning cellgro, 15-013-CM), supplemented with 10% FBS, 1× L-Glutamine (29.2 mg/mL) and 1× Penicillin Streptomycin (10,000 I.U./mL Penicillin; 10,000 μg/mL Streptomycin; Corning, 30-009-CI). The resulting MCF-7 cells were plated into a 24-well plate at 1×10^5 cells/well, and the following day, compound was added to the cell medium at various concentrations. After treating the cell medium with compound, the cell plates were incubated for 20 hours at 37° C. Upon cooling, cells were lysed by addition of SDS loading buffer. The resulting cell lysates were subjected to immunoblotting by standard protocol. with primary antibodies of mouse anti-human ERα monoclonal antibody (Santa Cruz Biotechnology Inc., #SC-8002) and 1:1000 goat anti-human actin polyclonal antibody (Santa Cruz Biotechnology Inc. #SC-1616). Western blot results visualized using picoLUCENT™ PLUS-HRP ECL (G Biosciences, 786-165) and LI-CORC digit imaging system.

MCF-7 tumors = assay: Tumor growth inhibition in MCF-7 breast cancer-derived mouse xenograft model; type: in vivo; conditions: 10 mg/day, i.p., 3 weeks, BALB/c nude mice with MCF-7 tumors; FIG. 14A
Method: For the tumor growth inhibition study, female BALB/c nude mice (with supplemental 17-β estradiol) bearing MCF-7 tumors (mean tumor volume 211 mm^3) were i.p. treated with Accutar-153 (10 mg/day) in vehicle or by vehicle only for 3 weeks. Body weight and tumor volume (tumor volume=[length×width^2]/2) were monitored twice weekly. At the end of study, plasma, tumor tissues and organs (brain, liver, kidney) for each animal were collected for further analysis.
Female BALB/c nude mice (supplemented with 17-β estradiol) bearing MCF-7 tumors (mean tumor volume was 211 mm^3) were treated with the compound:
[drawing 197] (10 mg/day, i.p.) in vehicle, or by vehicle only, for 3 weeks. Body weight and tumor volume (tumor volume=[length×width^2]/2) were monitored twice weekly. At the end of study, plasma, tumor tissues and organs (brain, liver, kidney) for each animal were collected for further analysis. The tumor growth inhibition studies were performed twice.

| SMILES | degradation of Estrogen Receptor alpha compared with the control (Estrogen Receptor alpha) | tumor weight, treatment group versus control group (MCF-7 tumors) |
| --- | --- | --- |
| CC/C(=C(\c1ccccc1)c1ccc(OCCN(C)CCCCCCC(=O)N[C@H](C(=O)N2C[C@H](O)C[C@H]2C(=O)NCc2ccc(-c3scnc3C)cc2)C(C)(C)C)cc1)c1ccccc1 [Compound 4] | resulted in degradation of Estrogen Receptor alpha when compared with the control |  |
| CC/C(=C(\c1ccc(O)cc1)c1ccc(OCCNC(=O)CCCCCCC(=O)N[C@H](C(=O)N2C[C@H](O)C[C@H]2C(=O)NCc2ccc(-c3scnc3C)cc2)C(C)(C)C)cc1)c1ccccc1 |  | significant decrease in tumor weight |
